From ChEMBL document CHEMBL1138923, “Structure-activity relationships of 1,5-biaryl pyrroles as EP1 receptor antagonists” (Bioorg Med Chem Lett, 2006) come the findings set out here.

Data set [1] deals with T1, Prostaglandin E2 receptor EP1 subtype (Homo sapiens, UniProt P34995).
T1 sequence (P34995 whole entry): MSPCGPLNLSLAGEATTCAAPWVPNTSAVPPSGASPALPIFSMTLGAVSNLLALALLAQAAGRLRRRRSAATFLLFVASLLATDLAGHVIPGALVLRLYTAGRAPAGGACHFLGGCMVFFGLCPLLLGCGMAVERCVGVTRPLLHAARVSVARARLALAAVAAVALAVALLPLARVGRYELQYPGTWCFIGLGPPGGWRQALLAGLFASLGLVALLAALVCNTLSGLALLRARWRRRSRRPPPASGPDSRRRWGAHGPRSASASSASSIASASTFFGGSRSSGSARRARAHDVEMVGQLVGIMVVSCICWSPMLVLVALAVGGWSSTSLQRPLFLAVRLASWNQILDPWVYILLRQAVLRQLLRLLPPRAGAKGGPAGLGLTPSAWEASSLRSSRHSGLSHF
The data set can be described thus: Inhibition of [3H]PGE2 binding to EP1 receptor expressed in CHO cells. The data set is classed as cell-based.

The nature of data set [2]: Volume of distribution in rat at 1 mg/kg, iv. The data set is classed as ADME, organism-based. Set-up: dose 1 mg/kg, route intravenous. As to conditions: in vivo, read-out: Vss.
Data set [3] is described as follows: Clearance in rat at 1 mg/kg, iv. The data set is classed as ADME, organism-based. Further details: dose 1 mg/kg, route intravenous. Particulars: in vivo.
A short description of data set [4]: Oral bioavailability in rat at 3 mg/kg, po. The data set is classed as ADME, organism-based. Particulars: in vivo.
In data set [5] the target is Cytochrome P450 (family) (Homo sapiens, UniProt P04798+P05177+P05181+P08684+P10632+P10635+P11509+P11712+P13584+P20813+P20815+P20853+P24462+P24903+P33260+P33261+P51589+P78329+P98187+Q02928+Q08477+Q16678+Q16696+Q5TCH4+Q6VVX0+Q7Z449+Q8TAV3+Q96SQ9+Q9HB55). The data set can be described thus: Inhibition of CYP450. It counts as ADME.
The species named for data set [6] is Rattus norvegicus. The data set can be described thus: Decrease in weight bearing of left hind paw in rat FCA model of inflammatory pain 1 hr post dose. The data set is classed as functional.
Data set [7] concerns the target Cytochrome P450 2C9 (Homo sapiens, UniProt P11712). The data set can be described thus: Inhibition of CYP450 2C9. It counts as ADME.
The nature of data set [8]: Half life in rat at 1 mg/kg, iv. Particulars: in vivo. The data set is classed as ADME, organism-based. Set-up: dose 1 mg/kg, route intravenous.

Structures are written as SMILES.

Cytochrome P450 2C9, sequence (P11712 whole entry): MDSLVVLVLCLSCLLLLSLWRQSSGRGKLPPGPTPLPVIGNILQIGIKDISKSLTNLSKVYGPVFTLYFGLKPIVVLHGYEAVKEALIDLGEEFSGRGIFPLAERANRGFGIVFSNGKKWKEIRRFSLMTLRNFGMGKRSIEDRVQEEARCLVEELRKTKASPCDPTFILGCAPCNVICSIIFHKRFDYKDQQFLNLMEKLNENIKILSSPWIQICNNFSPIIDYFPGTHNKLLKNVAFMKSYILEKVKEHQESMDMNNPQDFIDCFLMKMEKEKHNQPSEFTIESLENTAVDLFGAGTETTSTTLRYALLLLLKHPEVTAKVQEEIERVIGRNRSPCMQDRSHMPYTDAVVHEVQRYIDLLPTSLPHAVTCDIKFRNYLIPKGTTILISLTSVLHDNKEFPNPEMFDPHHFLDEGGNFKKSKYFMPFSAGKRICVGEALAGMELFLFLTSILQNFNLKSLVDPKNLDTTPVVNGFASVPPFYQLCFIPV

As to `Cc1ccc(-c2cc(Br)ccc2OCC2CCCCC2)n1-c1cccc(C(=O)O)c1`, in data set [1], the IC50 was 39.8 nM.

For `Cc1ccc(-c2cc(Cl)ccc2OCc2ccc(F)cc2F)n1-c1cccc(C(=O)O)c1`, in data set [2], the Vd amounted to 0.9 L/kg. For the same compound, the clearance in data set [3] is 62 mL/min/kg. Moreover, the IC50 in data set [1] was 3.98 nM.

In data set [1], `Cc1ccc(-c2cc(Br)ccc2OCc2c(F)cccc2C(F)(F)F)n1-c1cccc(C(=O)O)c1` gave an IC50 of 100 nM.

In data set [1], `CCc1ccc(-c2cc(Br)ccc2OCc2ccccc2)n1-c1cccc(C(=O)O)c1` showed an IC50 of 79.4 nM.

Compound `Cc1ccc(-c2cc(Br)ccc2OCc2cccc(C(F)(F)F)c2)n1-c1cccc(C(=O)O)c1` gave an IC50 in data set [1] of 251 nM.

Consider `Cc1c(-c2ccccc2)cc(-c2cc(Cl)ccc2OCc2ccccc2)n1-c1cccc(C(=O)O)c1`, for which, in data set [1], the IC50 was more than 1000 nM.

`Cc1ccc(-c2ccccc2OCc2ccccc2)n1-c1cccc(C(=O)O)c1`: in data set [1], the IC50 is 20 nM.

Compound `Cc1ccc(-c2cc(Br)ccc2OCc2ccc(C(F)(F)F)cc2F)n1-c1cccc(C(=O)O)c1` had a 50% inhibitory concentration (IC50) in data set [1] of 12.6 nM.

Regarding `Cc1ccc(-c2cc(Br)ccc2OCc2c(F)cc(F)cc2F)n1-c1cccc(C(=O)O)c1`, the half-inhibitory concentration (IC50) in data set [1] is 1.58 nM.

Turning to `Cc1ccc(-c2cc(Cl)ccc2OCC(C)C)n1-c1cccc(C(=O)O)c1`, the IC50 in data set [1] was 5.01 nM.

`Cc1cc(COc2ccc(Br)cc2-c2ccc(C)n2-c2cccc(C(=O)O)c2)no1` had an IC50 in data set [1] of 25.1 nM.

For `Cc1noc(C)c1COc1ccc(Br)cc1-c1ccc(C)n1-c1cccc(C(=O)O)c1`, the IC50 in data set [1] is 200 nM.

In data set [1], `Cc1ccc(-c2cc(Cl)ccc2OCC2CCOCC2)n1-c1cccc(C(=O)O)c1` gave an IC50 of 39.8 nM.

The compound `COc1ccc(COc2ccc(Br)cc2-c2ccc(C)n2-c2cccc(C(=O)O)c2)cc1` had a 50% inhibitory concentration (IC50) in data set [1] of 50.1 nM.

`O=C(O)c1cccc(-n2c(-c3cc(Cl)ccc3OCc3ccc(F)cc3)ccc2C(F)(F)F)c1`: the IC50 in data set [1] was 200 nM.

In the case of `Cc1ccc(-c2cc(-c3ccsc3)ccc2OCc2ccccc2)n1-c1cccc(C(=O)O)c1`, in data set [1], the 50% inhibitory concentration (IC50) was 631 nM.

Compound `Cc1ccc(-c2cc(Br)ccc2OCc2ccc(F)cc2)n1-c1cccc(C(=O)O)c1` showed a bioavailability in data set [4] of 44%. In data set [2], the Vd is 0.7 L/kg. Further, the results for the 50% inhibitory concentration (IC50) in data set [5], in data set [7] and in data set [1] were not below 17000 nM, 3900 nM and 6.31 nM, respectively. This compound also yielded an ED50 in data set [6] of 9.2 mg/kg. In addition, the clearance in data set [3] was 42 mL/min/kg.

On to `Cc1ccc(-c2cc(Br)ccc2OCc2c(F)cccc2Cl)n1-c1cccc(C(=O)O)c1`, for which, in data set [1], the IC50 was 12.6 nM.

`Cc1ccc(-c2cc(Cl)ccc2OCC2CCCC2)n1-c1cccc(C(=O)O)c1` showed an IC50 in data set [1] of 25.1 nM.

For `Cc1ccc(-c2cc(Br)ccc2OCc2ccccc2Cl)n1-c1cccc(C(=O)O)c1`, the concentration for half-maximal inhibition (IC50) in data set [1] is 12.6 nM.

For `CCc1ccc(-c2cc(Cl)ccc2OCc2ccccc2)n1-c1cccc(C(=O)O)c1`, the half-inhibitory concentration (IC50) in data set [1] was 100 nM.

Consider `Cc1ccc(-c2cc(Br)ccc2OCC(C)C)n1-c1cccc(C(=O)O)c1`, for which the half-maximal inhibitory concentration (IC50) in data set [1] is 5.01 nM.

Consider `Cc1c(Br)cc(-c2cc(Cl)ccc2OCc2ccccc2)n1-c1cccc(C(=O)O)c1`, for which the Vd in data set [2] turned out to be 1 L/kg. Moreover, the half-life in data set [8] was 18 min. Besides, the clearance in data set [3] was 54 mL/min/kg. The compound also gave an IC50 in data set [1] of 794 nM.

As for `Cc1ccc(-c2cc(Cl)ccc2OCc2ccc(F)cc2)n1-c1cccc(C(=O)O)c1`, the Vd in data set [2] was found to be 0.9 L/kg. In addition, the clearance in data set [3] amounted to 48 mL/min/kg. In data set [1], this compound gave an IC50 of 6.31 nM.

The compound `Cc1ccc(-c2cc(Br)ccc2OCc2ccccc2F)n1-c1cccc(C(=O)O)c1` showed a half-inhibitory concentration (IC50) in data set [1] of 3.16 nM.

For `Cc1ccc(-c2cc(Br)ccc2OCc2ccc(F)c(F)c2)n1-c1cccc(C(=O)O)c1`, the IC50 in data set [1] was 5.01 nM.

In data set [1], `Cc1ccc(-c2cc(Br)ccc2OCc2cc(F)ccc2F)n1-c1cccc(C(=O)O)c1` showed an IC50 of 7.94 nM.

As for `O=C(O)c1cccc(-n2c(Cl)ccc2-c2cc(Cl)ccc2OCc2ccccc2)c1`, the concentration for half-maximal inhibition (IC50) in data set [1] was 25.1 nM.

Take `Cc1ccc(-c2cc(Br)ccc2OCc2ccc(F)cc2Cl)n1-c1cccc(C(=O)O)c1`: the Vd in data set [2] stood at 0.8 L/kg. The same compound gave a half-life in data set [8] of 18 min. The compound also showed a clearance in data set [3] of 48 mL/min/kg. For the same compound, the IC50 in data set [1] is 15.8 nM.

In data set [1], `Cc1ccc(-c2cc(Br)ccc2OCc2cccc(OC(F)F)c2)n1-c1cccc(C(=O)O)c1` had a concentration for half-maximal inhibition (IC50) of 79.4 nM.

In data set [1], `Cc1ccc(-c2cc(Br)ccc2OCc2cccc(F)c2F)n1-c1cccc(C(=O)O)c1` gave an IC50 of 6.31 nM.

Regarding `Cc1ccc(-c2cc(C(F)(F)F)ccc2OCc2ccccc2)n1-c1cccc(C(=O)O)c1`, the half-inhibitory concentration (IC50) in data set [1] was 5.01 nM.

`Cc1ccc(-c2cc(Br)ccc2OCc2ccc(Cl)cc2Cl)n1-c1cccc(C(=O)O)c1` had an IC50 in data set [1] of 5.01 nM.

With `Cc1ccc(-c2cc(S(C)(=O)=O)ccc2OCc2ccccc2)n1-c1cccc(C(=O)O)c1`, the IC50 in data set [1] was 25.1 nM.

With `O=C(O)c1cccc(-n2c(-c3cc(Cl)ccc3OCc3ccc(F)cc3F)ccc2C(F)(F)F)c1`, the IC50 in data set [1] was 100 nM.

Compound `Cc1c(Cl)cc(-c2cc(Cl)ccc2OCc2ccccc2)n1-c1cccc(C(=O)O)c1` showed an IC50 in data set [1] of more than 1000 nM.

The compound `Cc1ccc(-c2cc(Br)ccc2OCc2ccc(Cl)c(Cl)c2)n1-c1cccc(C(=O)O)c1` showed an IC50 in data set [1] of 100 nM.

For `Cc1ccc(-c2cc(Br)ccc2OCc2cccc(Cl)c2)n1-c1cccc(C(=O)O)c1`, in data set [1], the concentration for half-maximal inhibition (IC50) was 10 nM.

For the compound `Cc1ccc(COc2ccc(Br)cc2-c2ccc(C)n2-c2cccc(C(=O)O)c2)cc1`, the concentration for half-maximal inhibition (IC50) in data set [1] is 2.51 nM.

For the compound `Cc1ccc(-c2cc(Br)ccc2OCc2ccc(OC(F)(F)F)cc2)n1-c1cccc(C(=O)O)c1`, the IC50 in data set [1] was 15.8 nM.

Turning to `Cc1ccc(-c2cc(-c3ccccc3)ccc2OCc2ccccc2)n1-c1cccc(C(=O)O)c1`, the IC50 in data set [1] is 398 nM.

Regarding `Cc1ccc(-c2cc(Cl)ccc2OCC2CCCO2)n1-c1cccc(C(=O)O)c1` (configuration not stated), in data set [1], the IC50 was 39.8 nM.

As to `Cc1ccc(-c2cc(Br)ccc2OCC2CCCC2)n1-c1cccc(C(=O)O)c1`, the IC50 in data set [1] is 15.8 nM.

For the compound `Cc1ccc(-c2cc(Br)ccc2OCc2ccc(C(F)(F)F)cc2)n1-c1cccc(C(=O)O)c1`, the IC50 in data set [1] was 39.8 nM.

As to `Cc1ccc(-c2cc(Cl)ccc2OCC2CCCCC2)n1-c1cccc(C(=O)O)c1`, the Vd in data set [2] was found to be 0.5 L/kg. In data set [8], this compound showed a half-life of 24 min. The same compound had a clearance in data set [3] of 28 mL/min/kg. In data set [1], this compound had an IC50 of 126 nM.

For the compound `Cc1ccc(-c2cc(Br)ccc2OCc2ccc(Cl)cc2)n1-c1cccc(C(=O)O)c1`, the Vd in data set [2] worked out at 0.8 L/kg. This compound also had a half-life in data set [8] of 12 min. The compound also yielded a clearance in data set [3] of 51 mL/min/kg. Moreover, the IC50 in data set [1] is 10 nM.

On to `COc1cccc(COc2ccc(Br)cc2-c2ccc(C)n2-c2cccc(C(=O)O)c2)c1`, for which the IC50 in data set [1] is 50.1 nM.

Compound `Cc1ccccc1COc1ccc(Br)cc1-c1ccc(C)n1-c1cccc(C(=O)O)c1` had a half-maximal inhibitory concentration (IC50) in data set [1] of 20 nM.

`Cc1ccc(-c2cc(Br)ccc2OCc2c(F)cccc2F)n1-c1cccc(C(=O)O)c1` gave an IC50 in data set [1] of 1 nM.

Consider `Cc1ccc(-c2cc(C(F)(F)F)ccc2OCC2CCCCC2)n1-c1cccc(C(=O)O)c1`, for which, in data set [1], the concentration for half-maximal inhibition (IC50) is 31.6 nM.
